Laboratory results published in patent US7498404B2, “Compositions, methods and uses for a novel family of peptides” (priority 2004, dated 2009).

What was measured:
[1] = test system: Module 2 A-domain protein; assay: ATP-PPi exchange assay, Module 2 A-domain; type: biochemical, Brevibacillus texasporus; settings: 0.5 mM amino acid, 37° C., 15 min
Procedure: (§1) Cloning, overexpression, and purification of His10-tagged BT A-domain proteins. DNA fragments encoding the A-domains of the BT NRPS Modules 8, 5, 7, 4 and 2 (Bt8A, Bt5A, Bt7A, Bt4A and Bt2A) were PCR-amplified and the PCR products were inserted into the His10-tag recombinant protein expression vector pET16b (Novagen). The A-domain borders were determined as defined by (Konz, et al., 1999). The expression constructs were transformed into the E.coli BL21 -AI strain (Invitrogen). Transformants were grown in L-broth at 37° C. to an A600 of 0.6 and then induced with 1 mM IPTG (isopropyl-β-D-thiogalactopyranoside) plus 0.2% L-arabinose. The cells were allowed to grow for two additional hours at 30° C. before being harvested. Purification of the His10-tag recombinant proteins was achieved using the TALON metal affinity resins (BD Biosciences) under conditions recommended in the manual with modifications. Briefly, the E. coli cells were broken by sonication. Cell lysates were cleared by centrifugation at 25,000× g for one hour. His-tagged recombinant proteins were then incubated with the TALON resin, washed, and eluted with 500 mM imidazole. Eluted proteins were dialyzed against a buffer (50 mM HEPES, pH 8.0, 100 mM sodium chloride, 10 mM magnesium chloride, and 1 mM EDTA) and then analyzed with SDS PAGE plus Coomassie Blue staining. […] Concentrations of the purified proteins were determined by using the calculated molar extinction coefficient for the A280.
ATP-PPi exchange assay. ATP-PPi exchange assays were performed to determine the substrate specificity of an A-domain. ATP-PPi exchanges were assayed as previously described (Stachelhaus, et al., 1998) with minor modifications. The assay mixture contained 50 mM HEPES (pH 8.0), 100 mM NaCl, 10 mM MgCl2, 2 mM ATP, 0.5 mM amino acid, 0.05 mM PPi, 0.15 μCi tetrasodium [^32P]pyrophosphate. Exchange was initiated by addition of purified recombinant A-domain proteins to a total volume of 0.1 ml. The protein concentrations were 0.2 μM for Module 4 and Module 5 A-domains while 2 μM for Module 7 and Module 8 A-domains. After incubation at 37° C. for 15 min, the reaction was stopped by addition of 0.5 ml of Termination Mix (100 mM tetrasodium pyrophosphate, 3.5% HClO4, and 1.6% [w/v] activated charcoal). The charcoal was pelleted by centrifugation, washed first with 40 mM pyrophosphate plus 1.4% perchloric acid and then with water, and was re-suspended in 0.5 ml of water. The charcoal/water suspension was added to a scintillation vial containing 5.0 ml of scintillation fluid, and the bound radioactivity was determined by liquid scintillation counting. The apparent Km values were determined with substrate concentrations ranging from 0.1 to 10 mM.
(§2) Since a purified recombinant A-domain of an NRPS module can selectively and efficiently activate the cognate amino acid substrate of the NRPS module in an ATP-PPi exchange assay (Konz, et al., 1999; Mootz & Marahiel, 1997), ATP-PPi exchange assays have been used to experimentally establish NRPS module specificities and novel NRPS codons. Recombinant A-domains of Modules 8, 5, 7 ,4 and 2 of the BT NRPS were produced and purified as described in Methods and Materials. Almost completely soluble recombinant A-domain proteins were obtained. A-domain specificities were determined in ATP-PPi exchange and aa Km assays (see Methods and Materials), and the results are shown in FIG. 5. […]

[2] = target: Module 5 A-domain protein (Brevibacillus texasporus, UniProt Q2VQ15); assay: ATP-PPi exchange assay, Module 5 A-domain; type: biochemical; settings: 0.5 mM amino acid, 0.2 μM protein, 37° C., 15 min
Sequence of Module 5 A-domain protein (Q2VQ15 entry or part of it): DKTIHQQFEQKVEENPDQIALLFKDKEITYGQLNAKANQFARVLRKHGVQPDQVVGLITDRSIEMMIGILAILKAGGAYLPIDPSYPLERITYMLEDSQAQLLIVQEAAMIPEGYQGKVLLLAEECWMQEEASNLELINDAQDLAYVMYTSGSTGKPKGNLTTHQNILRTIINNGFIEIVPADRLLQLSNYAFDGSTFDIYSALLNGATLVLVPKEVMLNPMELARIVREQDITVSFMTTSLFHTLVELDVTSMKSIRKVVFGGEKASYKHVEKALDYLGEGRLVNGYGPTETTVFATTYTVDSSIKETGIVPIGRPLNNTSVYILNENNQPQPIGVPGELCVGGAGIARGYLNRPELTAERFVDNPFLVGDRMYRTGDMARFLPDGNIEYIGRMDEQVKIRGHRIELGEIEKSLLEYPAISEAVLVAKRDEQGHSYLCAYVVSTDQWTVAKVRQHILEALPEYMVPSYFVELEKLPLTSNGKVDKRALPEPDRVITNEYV
Procedure: as §1, with “His-tagged recombinant proteins were then incubated with the TALON resin, washed, and eluted with 500 mM imidazole.” left out
(§3) ATP-PPi exchange assay. […] The charcoal/water suspension was added to a scintillation vial containing 5.0 ml of scintillation fluid, and the bound radioactivity was determined by liquid scintillation counting. […]
as §2, with “Recombinant A-domains of Modules 8, 5, 7 ,4 and 2 of the BT NRPS were produced and purified as described in Methods and Materials. Almost completely soluble recombinant A-domain proteins were obtained.” left out

[3] = target: Module 4 A-domain protein (Brevibacillus texasporus, UniProt Q2VQ15); assay: ATP-PPi exchange assay, Module 4 A-domain; type: biochemical; settings: 0.5 mM amino acid, 0.2 μM protein, 37° C., 15 min
Sequence of Module 4 A-domain protein (Q2VQ15 entry or part of it): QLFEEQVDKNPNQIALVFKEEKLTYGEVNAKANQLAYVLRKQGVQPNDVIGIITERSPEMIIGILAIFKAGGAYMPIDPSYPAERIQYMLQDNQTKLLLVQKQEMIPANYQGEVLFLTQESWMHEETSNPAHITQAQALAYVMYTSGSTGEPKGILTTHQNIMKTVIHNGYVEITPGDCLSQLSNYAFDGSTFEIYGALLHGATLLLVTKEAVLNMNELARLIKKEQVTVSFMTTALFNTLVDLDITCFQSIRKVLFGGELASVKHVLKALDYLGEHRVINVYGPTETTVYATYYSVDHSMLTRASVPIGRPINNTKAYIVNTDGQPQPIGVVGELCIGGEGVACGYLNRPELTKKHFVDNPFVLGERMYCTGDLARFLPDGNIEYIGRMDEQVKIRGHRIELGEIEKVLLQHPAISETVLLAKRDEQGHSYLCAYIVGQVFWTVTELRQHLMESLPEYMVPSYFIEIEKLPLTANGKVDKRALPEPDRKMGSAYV
Procedure: as §1, with “His-tagged recombinant proteins were then incubated with the TALON resin, washed, and eluted with 500 mM imidazole.” left out
as §3
as §2, with “Recombinant A-domains of Modules 8, 5, 7 ,4 and 2 of the BT NRPS were produced and purified as described in Methods and Materials. Almost completely soluble recombinant A-domain proteins were obtained.” left out

[4] = target: Module 8 A-domain protein (Brevibacillus texasporus, UniProt Q2VQ14); assay: ATP-PPi exchange assay, Module 8 A-domain; type: biochemical; settings: 0.5 mM amino acid, 2 μM protein, 37° C., 15 min
Sequence of Module 8 A-domain protein (Q2VQ14 entry or part of it): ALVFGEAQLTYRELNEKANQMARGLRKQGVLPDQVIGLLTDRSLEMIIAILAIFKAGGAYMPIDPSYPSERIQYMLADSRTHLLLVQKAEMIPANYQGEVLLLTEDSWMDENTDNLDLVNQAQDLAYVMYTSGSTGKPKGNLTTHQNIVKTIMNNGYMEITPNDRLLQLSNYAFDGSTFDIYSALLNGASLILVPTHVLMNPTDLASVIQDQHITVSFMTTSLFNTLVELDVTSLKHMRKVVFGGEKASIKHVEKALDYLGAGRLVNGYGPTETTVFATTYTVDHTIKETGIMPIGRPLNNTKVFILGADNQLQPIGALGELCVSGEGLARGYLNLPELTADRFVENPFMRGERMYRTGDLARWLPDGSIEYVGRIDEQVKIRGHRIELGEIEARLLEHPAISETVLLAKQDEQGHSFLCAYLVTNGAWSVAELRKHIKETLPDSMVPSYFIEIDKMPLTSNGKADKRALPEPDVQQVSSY
Procedure: as §1, with “His-tagged recombinant proteins were then incubated with the TALON resin, washed, and eluted with 500 mM imidazole.” left out
as §3
as §2, with “Recombinant A-domains of Modules 8, 5, 7 ,4 and 2 of the BT NRPS were produced and purified as described in Methods and Materials. Almost completely soluble recombinant A-domain proteins were obtained.” left out

[5] = target: T1, Module 7 A-domain protein (Brevibacillus texasporus, UniProt Q2VQ15); assay: ATP-PPi exchange assay, Module 7 A-domain; type: biochemical
T1 sequence (Q2VQ15 3560-4063): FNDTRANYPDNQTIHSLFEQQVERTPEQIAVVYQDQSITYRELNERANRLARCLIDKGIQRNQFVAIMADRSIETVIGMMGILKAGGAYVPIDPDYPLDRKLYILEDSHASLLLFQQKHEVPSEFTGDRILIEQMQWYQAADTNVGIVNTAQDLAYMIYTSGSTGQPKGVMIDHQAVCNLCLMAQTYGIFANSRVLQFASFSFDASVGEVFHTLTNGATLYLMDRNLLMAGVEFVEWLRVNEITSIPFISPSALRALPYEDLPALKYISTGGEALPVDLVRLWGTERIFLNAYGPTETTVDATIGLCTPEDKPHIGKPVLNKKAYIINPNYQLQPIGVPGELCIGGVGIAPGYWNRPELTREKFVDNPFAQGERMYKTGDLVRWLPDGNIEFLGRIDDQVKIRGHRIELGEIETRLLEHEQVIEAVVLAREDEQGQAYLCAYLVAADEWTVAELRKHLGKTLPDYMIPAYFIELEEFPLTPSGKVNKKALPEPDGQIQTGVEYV
Procedure: as §1, with “Purification of the His10-tag recombinant proteins was achieved using the TALON metal affinity resins (BD Biosciences) under conditions recommended in the manual with modifications. Briefly, the E. coli cells were broken by sonication. Cell lysates were cleared by centrifugation at 25,000× g for one hour. His-tagged recombinant proteins were then incubated with the TALON resin, washed, and eluted with 500 mM imidazole.” left out
as §3

Compound	relative substrate activation (highest activity defined as 100%) [1] [%]	relative substrate activation (highest activity defined as 100%) [2] [%]	relative substrate activation (highest activity defined as 100%) [3] [%]	relative substrate activation (highest activity defined as 100%) [4] [%]	substrate activation ([5]; 0.5 mM amino acid, 2 μM protein, 20 proteinogenic amino acids and L-Orn tested)	Km ([5]; substrate 0.1 to 10 mM, read-out: apparent Km) [µM]
CC[C@H](C)[C@H](N)C(=O)O [L-Ile]	19	23	100	4		
CC(C)C[C@H](N)C(=O)O [L-Leu]	98	17	7			
NCCCC[C@H](N)C(=O)O [L-Lys]				10	only amino acid that activated	1120
CSCC[C@H](N)C(=O)O [L-Met]	100					
N[C@@H](Cc1ccccc1)C(=O)O [L-Phe]	3.5					
